Experimental data from paper doi:10.64898/2026.05.07.723658, “Substrate-dependent crosslinking by the cytochrome P450 from aminopyruvatide biosynthesis” (bioRxiv, 2026).
Where a SMILES comes first, the peptide text is derived from it. The star is where a group is joined. For = O=C*

Key:
[1] = target: T1, angiotensin I-converting enzyme (ACE) (Oryctolagus cuniculus, UniProt P12822); assay: biochemical; settings: 15 min preincubation at room temperature; substrate Abz-FRK(Dnp)-P-OH; 37 °C
T1 construct: purchased Sigma A6778
T1 sequence (P12822 34-1310): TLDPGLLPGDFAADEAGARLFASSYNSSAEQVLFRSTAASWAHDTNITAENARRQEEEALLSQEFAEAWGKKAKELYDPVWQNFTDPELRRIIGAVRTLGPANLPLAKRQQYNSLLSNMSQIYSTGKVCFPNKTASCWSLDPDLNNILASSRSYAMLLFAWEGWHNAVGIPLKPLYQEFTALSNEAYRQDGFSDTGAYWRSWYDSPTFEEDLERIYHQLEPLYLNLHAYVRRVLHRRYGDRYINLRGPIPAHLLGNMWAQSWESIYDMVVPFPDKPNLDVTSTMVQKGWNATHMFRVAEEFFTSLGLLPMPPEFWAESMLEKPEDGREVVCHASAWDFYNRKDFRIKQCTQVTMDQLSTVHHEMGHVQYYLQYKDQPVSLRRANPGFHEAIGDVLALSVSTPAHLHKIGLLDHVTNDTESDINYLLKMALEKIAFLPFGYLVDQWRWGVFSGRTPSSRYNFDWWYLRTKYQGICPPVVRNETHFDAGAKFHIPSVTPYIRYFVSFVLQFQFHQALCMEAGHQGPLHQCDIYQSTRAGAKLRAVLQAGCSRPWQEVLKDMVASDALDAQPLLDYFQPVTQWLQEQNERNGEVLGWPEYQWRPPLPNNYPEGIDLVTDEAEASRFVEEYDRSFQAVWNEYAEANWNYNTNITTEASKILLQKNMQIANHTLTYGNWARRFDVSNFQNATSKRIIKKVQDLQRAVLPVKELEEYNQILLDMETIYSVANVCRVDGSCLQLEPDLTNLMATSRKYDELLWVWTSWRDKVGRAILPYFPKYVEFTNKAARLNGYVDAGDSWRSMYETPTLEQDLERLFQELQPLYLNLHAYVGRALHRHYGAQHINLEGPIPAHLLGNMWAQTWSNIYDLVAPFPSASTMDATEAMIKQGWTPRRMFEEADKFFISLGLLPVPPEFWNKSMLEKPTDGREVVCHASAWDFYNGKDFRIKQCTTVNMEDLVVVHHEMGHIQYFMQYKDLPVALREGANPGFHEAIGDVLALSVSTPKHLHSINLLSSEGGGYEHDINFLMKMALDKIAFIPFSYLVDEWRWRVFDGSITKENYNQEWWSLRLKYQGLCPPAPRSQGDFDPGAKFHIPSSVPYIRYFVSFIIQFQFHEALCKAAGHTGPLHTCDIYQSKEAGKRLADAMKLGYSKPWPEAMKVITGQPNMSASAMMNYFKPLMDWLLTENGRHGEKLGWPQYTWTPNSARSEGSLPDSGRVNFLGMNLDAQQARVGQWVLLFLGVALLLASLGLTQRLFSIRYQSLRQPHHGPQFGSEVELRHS

chymotrypsin = target: T2, chymotrypsin (Bos taurus, UniProt P00766); format: biochemical
T2 construct: purchased Promega V1061

[2] = target: T3, main protease from SARS-CoV-2 virus (Mpro) (Severe acute respiratory syndrome coronavirus 2, UniProt P0DTD1); format: biochemical
T3 construct: Cayman chemical) was used; purchased Cayman chemical 701960

trypsin = target: T4, trypsin (Sus scrofa, UniProt P00761); format: biochemical
T4 construct: purchased Promega V5111
T4 sequence (P00761 9-231): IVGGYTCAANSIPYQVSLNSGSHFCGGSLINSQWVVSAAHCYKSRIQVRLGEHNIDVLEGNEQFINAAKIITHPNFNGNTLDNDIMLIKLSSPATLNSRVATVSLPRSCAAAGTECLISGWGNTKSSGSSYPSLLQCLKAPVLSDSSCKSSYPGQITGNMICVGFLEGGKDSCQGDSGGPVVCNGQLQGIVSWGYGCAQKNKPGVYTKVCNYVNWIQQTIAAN

Row | SMILES | conversion by ApyO (cytochrome P450 ApyO) | further results
1 | NCC(=O)N[C@H]1Cc2ccc(O)c(c2)Oc2ccc(cc2)C[C@@H](C(=O)N[C@@H](CC(=O)O)C(=O)O)NC(=O)[C@H](Cc2ccc(O)cc2)NC1=O (single isomer, unassigned) [L7Y isomer-2] | – | IC50 [1]: 1.1 µM
2 | CSCC[C@H](NC=O)C(=O)N[C@@H](CCCNC(=N)N)C(=O)N[C@@H](CCSC)C(=O)NCC(=O)N[C@@H](CCC(=O)O)C(=O)NCC(=O)N[C@@H](Cc1ccc(O)cc1)C(=O)N[C@@H](CC(C)C)C(=O)N[C@@H](Cc1ccc(O)cc1)C(=O)N[C@@H](CC(=O)O)C(=O)O [ApyAct, MRMGEGYLYD] (For-MRMGEGYLYD-OH) | about 70% | –
3 | CSCC[C@H](NC=O)C(=O)N[C@@H](CCCNC(=N)N)C(=O)N[C@@H](CCSC)C(=O)NCC(=O)N[C@@H](CCC(=O)O)C(=O)NCC(=O)N[C@@H](Cc1ccc(O)cc1)C(=O)N[C@@H](Cc1ccccc1)C(=O)N[C@@H](Cc1ccc(O)cc1)C(=O)N[C@@H](CC(=O)O)C(=O)O [L7F] (For-MRMGEGYFYD-OH) | ~ 8% | –
4 | CSCC[C@H](NC=O)C(=O)N[C@@H](CCCNC(=N)N)C(=O)N[C@@H](CCSC)C(=O)NCC(=O)N[C@@H](CCC(=O)O)C(=O)NCC(=O)N[C@@H](Cc1ccc(O)cc1)C(=O)NCC(=O)N[C@@H](Cc1ccc(O)cc1)C(=O)N[C@@H](CC(=O)O)C(=O)O [L7G] (For-MRMGEGYGYD-OH) | ~ 1% | –
5 | CC[C@H](C)[C@H](NC(=O)[C@H](Cc1ccc(O)cc1)NC(=O)CNC(=O)[C@H](CCC(=O)O)NC(=O)CNC(=O)[C@H](CCSC)NC(=O)[C@H](CCCNC(=N)N)NC(=O)[C@H](CCSC)NC=O)C(=O)N[C@@H](Cc1ccc(O)cc1)C(=O)N[C@@H](CC(=O)O)C(=O)O [L7I] (For-MRMGEGYIYD-OH) | ~ 60% | –
6 | CSCC[C@H](NC=O)C(=O)N[C@@H](CCCNC(=N)N)C(=O)N[C@@H](CCSC)C(=O)NCC(=O)N[C@@H](CCC(=O)O)C(=O)NCC(=O)N[C@@H](Cc1ccc(O)cc1)C(=O)N[C@H](C(=O)N[C@@H](Cc1ccc(O)cc1)C(=O)N[C@@H](CC(=O)O)C(=O)O)[C@@H](C)O [L7T] (For-MRMGEGYTYD-OH) | ~ 3% | –
7 | CSCC[C@H](NC=O)C(=O)N[C@@H](CCCNC(=N)N)C(=O)N[C@@H](CCSC)C(=O)NCC(=O)N[C@@H](CCC(=O)O)C(=O)NCC(=O)N[C@@H](Cc1ccc(O)cc1)C(=O)N[C@H](C(=O)N[C@@H](Cc1ccc(O)cc1)C(=O)N[C@@H](CC(=O)O)C(=O)O)C(C)C [L7V] (For-MRMGEGYVYD-OH) | ~ 57% | –
8 | CSCC[C@H](NC=O)C(=O)N[C@@H](CCCNC(=N)N)C(=O)N[C@@H](CCSC)C(=O)NCC(=O)N[C@@H](CCC(=O)O)C(=O)NCC(=O)N[C@@H](Cc1ccc(O)cc1)C(=O)N[C@@H](Cc1c[nH]c2ccccc12)C(=O)N[C@@H](Cc1ccc(O)cc1)C(=O)N[C@@H](CC(=O)O)C(=O)O [L7W] (For-MRMGEGYWYD-OH) | ~ 39% | –
9 | CSCC[C@H](NC=O)C(=O)N[C@@H](CCCNC(=N)N)C(=O)N[C@@H](CCSC)C(=O)NCC(=O)N[C@@H](CCC(=O)O)C(=O)NCC(=O)N[C@@H](Cc1ccc(O)cc1)C(=O)N[C@@H](Cc1ccc(O)cc1)C(=O)N[C@@H](Cc1ccc(O)cc1)C(=O)N[C@@H](CC(=O)O)C(=O)O [L7Y] (For-MRMGEGYYYD-OH) | near quantitative | –
10 | CSCC[C@H](NC=O)C(=O)N[C@@H](CCCCN)C(=O)N[C@@H](CCSC)C(=O)NCC(=O)N[C@@H](CCC(=O)O)C(=O)NCC(=O)N[C@@H](Cc1ccc(O)cc1)C(=O)N[C@@H](CC(C)C)C(=O)N[C@@H](Cc1ccc(O)cc1)C(=O)N[C@@H](CC(=O)O)C(=O)O [R1K] (For-MKMGEGYLYD-OH) | ~ 8% | –
11 | CC(C)C[C@@H]1NC(=O)[C@@H](NC(=O)CN)Cc2ccc(O)c(c2)-c2cc(ccc2O)C[C@@H](C(=O)N[C@@H](C)C(=O)C(=O)O)NC1=O [desmethylaminopyruvatide A] | – | inhibition of chymotrypsin (chymotrypsin): No inhibition; inhibition of Mpro [2]: No inhibition; inhibition of trypsin (trypsin): No inhibition
